The target in one data set is T1, 5-HT7 receptors (Homo sapiens, UniProt P34969).
T1 construct: University of North Carolina Psychoactive Drug Screening Project (PDSP), contract testing
The experiment in a line: PDSP radioligand competition binding, 5-HT7. As to conditions: for Ki: secondary binding assay, average of n = 3. On the procedure:
(§1) All six of the hybrid TFMPP–MDBP regioisomers reported in this manuscript were tested for their serotonin receptor and reuptake pump binding profiles by the University of North Carolina's Psychoactive Drug Screening Project (PDSP). Initially, each isomer was tested in a primary assay at a concentration of 10 umol/L for its ability to displace a standard ligand at each serotonin receptor and transporter subtype. […] The Ki (nmol/L) values were obtained from non-linear regression of radioligand competition binding isotherms in this assay and calculated from best-fit inhibitory concentration IC50 values using the Cheng–Prusoff equation. The reported values are the average of three (n = 3) determinations. Further experimental details regarding these receptor assays are presented in the PDSP Protocol Manual available at the PDSP website.
In general terms: In a radioligand displacement assay an active substance lowers the binding of a labelled ligand.

Data set [1] addresses T2, SERT (serotonin reuptake pump) (Homo sapiens, UniProt P31645).
T2 construct: University of North Carolina Psychoactive Drug Screening Project (PDSP), contract testing
The experiment in a line: PDSP radioligand competition binding, SERT. Particulars: for Ki: secondary binding assay, average of n = 3. On the procedure: as §1

In the next data set the target is T3, 5-HT2C receptors (Homo sapiens, UniProt P28335).
T3 construct: University of North Carolina Psychoactive Drug Screening Project (PDSP), contract testing
T3 sequence (P28335 33-458): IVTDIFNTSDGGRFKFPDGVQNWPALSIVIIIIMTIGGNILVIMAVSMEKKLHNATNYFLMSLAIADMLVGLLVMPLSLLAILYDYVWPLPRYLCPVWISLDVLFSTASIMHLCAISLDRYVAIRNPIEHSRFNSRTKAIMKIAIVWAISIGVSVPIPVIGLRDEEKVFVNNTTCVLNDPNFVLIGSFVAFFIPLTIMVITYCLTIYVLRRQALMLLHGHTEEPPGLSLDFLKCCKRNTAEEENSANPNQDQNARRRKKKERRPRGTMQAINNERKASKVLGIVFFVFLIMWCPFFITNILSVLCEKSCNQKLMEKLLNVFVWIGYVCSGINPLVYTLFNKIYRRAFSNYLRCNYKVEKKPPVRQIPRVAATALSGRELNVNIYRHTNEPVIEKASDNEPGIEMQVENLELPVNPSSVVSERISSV
As to the kind of experiment: PDSP radioligand competition binding, 5-HT2C. As to conditions: for Ki: secondary binding assay, average of n = 3. On the procedure: as §1

Data set [2] concerns the target T4, 5-HT2A receptors (Homo sapiens, UniProt P28223).
T4 construct: University of North Carolina Psychoactive Drug Screening Project (PDSP), contract testing
The experiment in a line: PDSP radioligand competition binding, 5-HT2A. Particulars: for Ki: secondary binding assay, average of n = 3. On the procedure: as §1

In another data set the target is T5, 5-HT2B receptors (Homo sapiens, UniProt P41595).
T5 construct: University of North Carolina Psychoactive Drug Screening Project (PDSP), contract testing
T5 sequence (P41595 whole entry): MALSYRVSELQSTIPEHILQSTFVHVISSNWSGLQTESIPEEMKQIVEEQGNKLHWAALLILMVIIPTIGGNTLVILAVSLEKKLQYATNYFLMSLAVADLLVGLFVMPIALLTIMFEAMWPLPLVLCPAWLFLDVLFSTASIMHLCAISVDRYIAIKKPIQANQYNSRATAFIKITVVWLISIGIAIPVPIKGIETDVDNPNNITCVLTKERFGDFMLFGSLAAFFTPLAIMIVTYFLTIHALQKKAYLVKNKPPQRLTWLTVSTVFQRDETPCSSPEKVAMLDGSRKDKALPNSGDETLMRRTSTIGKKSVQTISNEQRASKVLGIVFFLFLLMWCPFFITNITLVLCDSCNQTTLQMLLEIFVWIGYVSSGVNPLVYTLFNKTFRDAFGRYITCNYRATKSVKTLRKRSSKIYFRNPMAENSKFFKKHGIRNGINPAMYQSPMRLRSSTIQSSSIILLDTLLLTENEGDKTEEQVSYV
As to the kind of experiment: PDSP radioligand competition binding, 5-HT2B. As to conditions: secondary binding assay, average of n = 3. On the procedure:
as §1

Data set [3] has as its target T6, 5-HT1A receptors (Homo sapiens, UniProt P08908).
T6 construct: University of North Carolina Psychoactive Drug Screening Project (PDSP), contract testing
T6 sequence (P08908 1-422): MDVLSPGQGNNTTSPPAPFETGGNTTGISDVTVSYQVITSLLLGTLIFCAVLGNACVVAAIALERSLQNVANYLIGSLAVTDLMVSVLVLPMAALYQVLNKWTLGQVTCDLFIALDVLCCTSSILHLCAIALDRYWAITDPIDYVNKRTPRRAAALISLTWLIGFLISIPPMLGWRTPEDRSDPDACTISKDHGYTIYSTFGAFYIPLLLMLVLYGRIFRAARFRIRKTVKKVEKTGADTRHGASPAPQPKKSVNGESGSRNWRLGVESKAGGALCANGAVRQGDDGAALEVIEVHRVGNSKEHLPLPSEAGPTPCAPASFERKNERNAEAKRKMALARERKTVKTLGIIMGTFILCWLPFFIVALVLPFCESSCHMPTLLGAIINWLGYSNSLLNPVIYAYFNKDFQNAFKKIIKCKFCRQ
As to the kind of experiment: PDSP radioligand competition binding, 5-HT1A. As to conditions: secondary binding assay, average of n = 3. On the procedure: as §1

For data set [4], the system named is cardiomyoblast h9c2 cells. As to conditions: cited from earlier work.
The test system of data set [5] is 5-HT1A, 5-HT1B, 5-HT1D and 5-HT2C receptors. As to conditions: literature, no reference given; cited from earlier work.
The next data set relates to SERT. As to conditions: no reference given, cited from earlier work.
A further data set has as its target 5-HT1B receptors. As to conditions: literature value, no reference given; cited from earlier work.
For the next data set, the target named is 5-HT1D receptors. Particulars: literature value, no reference given; cited from earlier work.
Data set [6] deals with T4, 5-HT2A receptors. Particulars: read-out: Ki, 5-HT2A; literature value, no reference given; cited from earlier work.
Data set [7] has as its system dopamine and norepinephrine reuptake pumps. Particulars: literature, no reference given; cited from earlier work.
In data set [8] the test system is other serotonin receptor subtypes. Particulars: literature, no reference given; cited from earlier work.
The subject of the next data set is 5-HT2A receptor. Particulars: literature, no reference given; cited from earlier work.
Data set [9] has as its target T6, 5-HT1A receptors. Particulars: read-out: Ki, 5-HT1A; literature value, no reference given; cited from earlier work.

Like-named read-outs stand apart in the source and are kept apart here.

T2 sequence (P31645 whole entry, species assumed): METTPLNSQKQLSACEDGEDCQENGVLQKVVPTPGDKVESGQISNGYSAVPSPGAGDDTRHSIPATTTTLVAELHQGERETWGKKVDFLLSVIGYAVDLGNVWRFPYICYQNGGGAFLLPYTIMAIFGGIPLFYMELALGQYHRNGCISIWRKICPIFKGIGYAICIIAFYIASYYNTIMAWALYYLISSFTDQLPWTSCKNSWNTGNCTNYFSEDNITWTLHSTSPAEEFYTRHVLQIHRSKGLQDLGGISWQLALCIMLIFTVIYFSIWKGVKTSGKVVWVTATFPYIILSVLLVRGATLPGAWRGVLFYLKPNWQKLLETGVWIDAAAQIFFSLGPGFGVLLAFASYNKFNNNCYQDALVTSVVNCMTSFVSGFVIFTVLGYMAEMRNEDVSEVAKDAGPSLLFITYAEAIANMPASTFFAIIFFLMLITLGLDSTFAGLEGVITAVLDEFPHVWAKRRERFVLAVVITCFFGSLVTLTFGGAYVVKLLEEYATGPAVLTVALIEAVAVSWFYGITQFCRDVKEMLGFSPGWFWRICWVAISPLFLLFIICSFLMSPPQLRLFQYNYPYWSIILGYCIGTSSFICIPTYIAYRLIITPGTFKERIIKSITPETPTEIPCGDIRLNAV
T1 sequence (P34969 whole entry): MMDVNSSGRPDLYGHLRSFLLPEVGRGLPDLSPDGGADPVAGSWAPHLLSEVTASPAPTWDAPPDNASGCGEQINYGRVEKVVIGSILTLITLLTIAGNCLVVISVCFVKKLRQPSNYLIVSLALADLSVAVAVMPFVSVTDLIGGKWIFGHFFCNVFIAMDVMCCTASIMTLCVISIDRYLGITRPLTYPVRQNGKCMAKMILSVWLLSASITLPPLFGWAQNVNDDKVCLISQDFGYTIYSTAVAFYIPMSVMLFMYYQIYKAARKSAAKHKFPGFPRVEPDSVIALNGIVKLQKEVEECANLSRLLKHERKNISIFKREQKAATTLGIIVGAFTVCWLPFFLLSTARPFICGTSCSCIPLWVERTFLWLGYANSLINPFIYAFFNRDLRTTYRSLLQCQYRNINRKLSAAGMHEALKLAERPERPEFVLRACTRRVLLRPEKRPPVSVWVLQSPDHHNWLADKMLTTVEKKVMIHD
T4 sequence (P28223 whole entry): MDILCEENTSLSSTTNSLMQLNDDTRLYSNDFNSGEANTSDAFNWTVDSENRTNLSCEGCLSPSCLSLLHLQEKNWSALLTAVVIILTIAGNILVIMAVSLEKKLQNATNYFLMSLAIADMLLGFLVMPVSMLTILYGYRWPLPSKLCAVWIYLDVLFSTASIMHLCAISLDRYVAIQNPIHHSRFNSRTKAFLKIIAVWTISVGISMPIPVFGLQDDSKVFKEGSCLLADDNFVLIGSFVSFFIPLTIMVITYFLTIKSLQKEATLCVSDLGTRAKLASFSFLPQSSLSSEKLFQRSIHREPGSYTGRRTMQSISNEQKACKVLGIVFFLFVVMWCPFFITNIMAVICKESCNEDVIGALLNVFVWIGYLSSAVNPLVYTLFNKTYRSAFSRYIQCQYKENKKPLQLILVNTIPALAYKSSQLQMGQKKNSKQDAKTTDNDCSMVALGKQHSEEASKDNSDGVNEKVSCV

The Ki is the dissociation constant of the complex between target and ligand, obtained from inhibition or displacement. As to `FC(F)(F)c1ccccc1N1CCN(Cc2ccc3c(c2)OCO3)CC1` [Compound 4, 2-TFMPP-3,4-MDBP], on 5-HT7 receptors, the “binding by 5-HT7 receptors, in words” value is “bound by 5-HT7 receptors”. The inhibition constant (Ki) at 5-HT7 receptors is 462 nM; in data set [1], above 1000 nM; at 5-HT2C receptors it was 924 nM; on 5-HT2A receptors [2] it was above 1000 nM; on 5-HT2B receptors, 81 nM; on 5-HT1A receptors [3], above 1000 nM. For the same compound, the “binding to 5-HT2C receptors, in words” value on 5-HT2C receptors is “modest binding”.
In the case of `FC(F)(F)c1ccc(N2CCN(Cc3cccc4c3OCO4)CC2)cc1` [Compound 3, 4-TFMPP-2,3-MD], the Ki on 5-HT7 receptors was above 1000 nM; in data set [1], above 1000 nM; on 5-HT2C receptors, above 1000 nM; at 5-HT2A receptors [2], above 1000 nM; on 5-HT2B receptors it was 870 nM; at 5-HT1A receptors [3], above 1000 nM.
With `FC(F)(F)c1ccccc1N1CCN(Cc2cccc3c2OCO3)CC1` [Compound 1, 2-TFMPP-2,3-MDBP], the “binding by 5-HT7 receptors, in words” value at 5-HT7 receptors is “bound by 5-HT7 receptors”; at 5-HT7 receptors (listed as 2-TFMPP-2,3-MDBP), “highest affinity”. Besides, the Ki at 5-HT7 receptors is 165 nM; in data set [1], above 1000 nM; on 5-HT2C receptors, 868 nM; on 5-HT2A receptors [2] it was above 1000 nM; on 5-HT2B receptors, 74.5 nM; on 5-HT1A receptors [3], above 1000 nM. Also, the “binding to 5-HT2C receptors, in words” value on 5-HT2C receptors is given as “modest binding”.
Regarding `FC(F)(F)c1cccc(N2CCN(Cc3ccc4c(c3)OCO4)CC2)c1` [Compound 5, 3-TFMPP-3,4-MDBP], the “binding by 5-HT7 receptors, in words” value at 5-HT7 receptors is “bound by 5-HT7 receptors”. For the same compound, the Ki was 516 nM at 5-HT7 receptors; above 1000 nM in [1]; 430 nM on 5-HT2C receptors; above 1000 nM at 5-HT2A receptors [2]; 116 nM at 5-HT2B receptors; 188 nM at 5-HT1A receptors [3]. In addition, the “binding to 5-HT2C receptors, in words” value at 5-HT2C receptors is on record as “modest binding”.
Consider `FC(F)(F)c1cccc(N2CCN(Cc3cccc4c3OCO4)CC2)c1` [Compound 2, 3-TFMPP-2,3-MDBP], for which, at 5-HT7 receptors, the “binding by 5-HT7 receptors, in words” value is on record as “bound by 5-HT7 receptors”. In addition, the inhibitory constant (Ki) on 5-HT7 receptors is 747 nM; in [1] it was above 1000 nM; on 5-HT2C receptors, 753 nM; at 5-HT2A receptors [2], 372 nM; on 5-HT2B receptors, 203 nM; at 5-HT1A receptors [3], 864 nM. Besides, the “binding to 5-HT2C receptors, in words” value at 5-HT2C receptors is given as “modest binding”. Moreover, the “affinity at 5-HT2A receptors compared to 3-TFMPP, in words” value on 5-HT2A receptors [2] is “retained activity comparable to the parent designer drug”.
Turning to `c1cc2c(cc1CN1CCNCC1)OCO2` [3,4-MDBP, 1-(3,4-methylenedioxybenzyl) piperazine], in data set [4], the intracellular calcium levels entry is recorded as “significant increase” and the mitochondrial membrane potential result is “decrease”.
`FC(F)(F)c1cccc(N2CCNCC2)c1` [Compound 3-TFMPP, 1-(3-trifluoromethylphenyl) piperazine]: the “functional activity at all sites except 5-HT2A” value in [5] was “full agonist”. In addition, in the data set on SERT (literature value, read-out: effective concentration (EC50) at SERT), the EC50 is 121 nM. Besides, the “serotonin release, in words” value in the data set on SERT (literature) is listed as “promotes serotonin release”. The inhibition constant (Ki) was 132 nM on 5-HT1B receptors, 282 nM on 5-HT1D receptors, 269 nM at 5-HT2A receptors [6] and 288 nM at 5-HT1A receptors [9]. Further, the “effects on dopamine and norepinephrine reuptake pumps” value in data set [7] was “no effects”. In addition, the “affinity for other serotonin receptor subtypes, in words” value in data set [8] is recorded as “does not show significant affinity”. In addition, the intracellular calcium levels entry in data set [4] is recorded as “significant increase”. In addition, in [4], the mitochondrial membrane potential entry is listed as “decrease”. Further, the “functional activity at the 5-HT2A receptor” value in the data set with 5-HT2A receptor is “weak partial agonist or antagonist”.
As to `FC(F)(F)c1ccc(N2CCN(Cc3ccc4c(c3)OCO4)CC2)cc1` [Compound 6, 4-TFMPP-3,4-MDBP], the Ki on 5-HT7 receptors was above 1000 nM; in data set [1] it was 722 nM; on 5-HT2C receptors, above 1000 nM; on 5-HT2A receptors [2] it was above 1000 nM; at 5-HT2B receptors, 247 nM; on 5-HT1A receptors [3] it was above 1000 nM. For the same compound, the “affinity for SERT pumps, in words” value in [1] is given as “significant affinity”. The “potency at SERT relative to monosubstituted 3-TFMPP” value in [1] is “about six-times less potent”.

Values taken from article PMC6197089, “Disubstituted piperazine analogues of trifluoromethylphenylpiperazine and methylenedioxybenzylpiperazine: analytical differentiation and serotonin receptor binding studies” (Forensic sciences research, 2018).
